# How the values were obtained:
# Assay in all cases: relative viability (nuclei count vs DMSO), 5 days (fraction); higher = more cells survive
# NCI-H1792 = tested on: NCI-H1792
# Outline: (§1)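 Each reported value is a median over duplicate plates. It expresses relative viability: treated-well nuclei count divided by vehicle-well nuclei count. Lung cancer cell lines in 1536-well plates were dosed by pin tool a day after seeding, alone with one drug or with a fixed anchor-drug dose plus five library-drug doses (not always all listed) in √10 steps, and nuclei were counted after 5 days.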
# SK-MES-1 = tested on: SK-MES-1
# Outline: as §1
# NCI-H2342 = tested on: NCI-H2342
# Outline: as §1
# NCI-H1395 = tested on: NCI-H1395
# Outline: as §1
# NCI-H23 = tested on: NCI-H23
# Outline: as §1
# COR-L23 = tested on: COR-L23
# Outline: as §1
# NCI-H2009 = tested on: NCI-H2009
# Outline: as §1
# LC-2-ad = tested on: LC-2-ad
# Outline: as §1
# NCI-H358 = tested on: NCI-H358
# Outline: as §1
# NCI-H2023 = tested on: NCI-H2023
# Outline: as §1
# NCI-H1755 = tested on: NCI-H1755
# Outline: as §1
# HCC-366 = tested on: HCC-366
# Outline: as §1
# EMC-BAC-2 = tested on: EMC-BAC-2
# Outline: as §1
# NCI-H2347 = tested on: NCI-H2347
# Outline: as §1
# NCI-H650 = tested on: NCI-H650
# Outline: as §1
# NCI-H1437 = tested on: NCI-H1437
# Outline: as §1
# COR-L 105 = tested on: COR-L 105
# Outline: as §1
# NCI-H1915 = tested on: NCI-H1915
# Outline: as §1
# PC-14 = tested on: PC-14
# Outline: as §1
# HCC-15 = tested on: HCC-15
# Outline: as §1
# NCI-H1793 = tested on: NCI-H1793
# Outline: as §1
# 201T = tested on: 201T
# Outline: as §1
smiles,measurement,setting,value
CCNC(=O)c1noc(-c2cc(C(C)C)c(O)cc2O)c1-c1ccc(CN2CCOCC2)cc1 [Luminespib] + CC(=O)Nc1cccc(-n2c(=O)n(C3CC3)c(=O)c3c(Nc4ccc(I)cc4F)n(C)c(=O)c(C)c32)c1 [Trametinib] (partner 0.02 µM),relative viability,NCI-H1792; first compound 0.002 µM,0.407
same,relative viability,NCI-H1792; first compound 0.006325 µM,0.391
same,relative viability,NCI-H1792; first compound 0.02 µM,0.317
same,relative viability,NCI-H1792; first compound 0.06325 µM,0.0621
same,relative viability,NCI-H1792; first compound 0.2 µM,0.0632
same,relative viability,SK-MES-1; first compound 0.002 µM,0.551
same,relative viability,SK-MES-1; first compound 0.006325 µM,0.469
same,relative viability,SK-MES-1; first compound 0.02 µM,0.576
same,relative viability,SK-MES-1; first compound 0.06325 µM,0.177
same,relative viability,SK-MES-1; first compound 0.2 µM,0.166
same,relative viability,NCI-H2342; first compound 0.002 µM,0.687
same,relative viability,NCI-H2342; first compound 0.006325 µM,0.881
same,relative viability,NCI-H2342; first compound 0.02 µM,0.551
same,relative viability,NCI-H2342; first compound 0.06325 µM,0.889
same,relative viability,NCI-H2342; first compound 0.2 µM,0.52
same,relative viability,NCI-H1395; first compound 0.002 µM,0.994
same,relative viability,NCI-H1395; first compound 0.006325 µM,1.05
same,relative viability,NCI-H1395; first compound 0.02 µM,0.827
same,relative viability,NCI-H1395; first compound 0.06325 µM,0.35
same,relative viability,NCI-H1395; first compound 0.2 µM,0.379
same,relative viability,NCI-H23; first compound 0.002 µM,0.397
same,relative viability,NCI-H23; first compound 0.006325 µM,0.424
same,relative viability,NCI-H23; first compound 0.02 µM,0.333
same,relative viability,NCI-H23; first compound 0.06325 µM,0.13
same,relative viability,NCI-H23; first compound 0.2 µM,0.156
same,relative viability,COR-L23; first compound 0.002 µM,0.569
same,relative viability,COR-L23; first compound 0.006325 µM,0.462
same,relative viability,COR-L23; first compound 0.02 µM,0.223
same,relative viability,COR-L23; first compound 0.06325 µM,0.0665
same,relative viability,COR-L23; first compound 0.2 µM,0.0604
same,relative viability,NCI-H2009; first compound 0.002 µM,0.271
same,relative viability,NCI-H2009; first compound 0.006325 µM,0.225
same,relative viability,NCI-H2009; first compound 0.02 µM,0.169
same,relative viability,NCI-H2009; first compound 0.06325 µM,0.0625
same,relative viability,NCI-H2009; first compound 0.2 µM,0.0698
same,relative viability,LC-2-ad; first compound 0.002 µM,0.926
same,relative viability,LC-2-ad; first compound 0.006325 µM,0.903
same,relative viability,LC-2-ad; first compound 0.02 µM,1.06
same,relative viability,LC-2-ad; first compound 0.06325 µM,0.889
same,relative viability,LC-2-ad; first compound 0.2 µM,0.647
same,relative viability,NCI-H358; first compound 0.002 µM,0.142
same,relative viability,NCI-H358; first compound 0.006325 µM,0.133
same,relative viability,NCI-H358; first compound 0.02 µM,0.0934
same,relative viability,NCI-H358; first compound 0.06325 µM,0.0702
same,relative viability,NCI-H358; first compound 0.2 µM,0.0715
same,relative viability,NCI-H2023; first compound 0.002 µM,0.49
same,relative viability,NCI-H2023; first compound 0.006325 µM,0.56
same,relative viability,NCI-H2023; first compound 0.02 µM,0.39
same,relative viability,NCI-H2023; first compound 0.06325 µM,0.0742
same,relative viability,NCI-H2023; first compound 0.2 µM,0.0679
same,relative viability,NCI-H1755; first compound 0.002 µM,0.783
same,relative viability,NCI-H1755; first compound 0.006325 µM,0.733
same,relative viability,NCI-H1755; first compound 0.02 µM,0.691
same,relative viability,NCI-H1755; first compound 0.06325 µM,0.765
same,relative viability,NCI-H1755; first compound 0.2 µM,0.701
same,relative viability,HCC-366; first compound 0.002 µM,0.354
same,relative viability,HCC-366; first compound 0.006325 µM,0.363
same,relative viability,HCC-366; first compound 0.02 µM,0.349
same,relative viability,HCC-366; first compound 0.06325 µM,0.026
same,relative viability,HCC-366; first compound 0.2 µM,0.0301
same,relative viability,EMC-BAC-2; first compound 0.002 µM,0.857
same,relative viability,EMC-BAC-2; first compound 0.02 µM,0.643
same,relative viability,EMC-BAC-2; first compound 0.06325 µM,0.619
same,relative viability,EMC-BAC-2; first compound 0.2 µM,0.247
same,relative viability,NCI-H2347; first compound 0.002 µM,0.29
same,relative viability,NCI-H2347; first compound 0.006325 µM,0.307
same,relative viability,NCI-H2347; first compound 0.02 µM,0.269
same,relative viability,NCI-H2347; first compound 0.06325 µM,0.254
same,relative viability,NCI-H2347; first compound 0.2 µM,0.294
same,relative viability,NCI-H650; first compound 0.002 µM,1.06
same,relative viability,NCI-H650; first compound 0.006325 µM,0.881
same,relative viability,NCI-H650; first compound 0.02 µM,0.629
same,relative viability,NCI-H650; first compound 0.06325 µM,0.262
same,relative viability,NCI-H650; first compound 0.2 µM,0.086
same,relative viability,NCI-H1437; first compound 0.002 µM,0.595
same,relative viability,NCI-H1437; first compound 0.006325 µM,0.52
same,relative viability,NCI-H1437; first compound 0.02 µM,0.492
same,relative viability,NCI-H1437; first compound 0.06325 µM,0.325
same,relative viability,NCI-H1437; first compound 0.2 µM,0.217
same,relative viability,COR-L 105; first compound 0.002 µM,0.46
same,relative viability,COR-L 105; first compound 0.006325 µM,0.43
same,relative viability,COR-L 105; first compound 0.02 µM,0.384
same,relative viability,COR-L 105; first compound 0.06325 µM,0.265
same,relative viability,COR-L 105; first compound 0.2 µM,0.278
same,relative viability,NCI-H1915; first compound 0.002 µM,0.316
same,relative viability,NCI-H1915; first compound 0.006325 µM,0.287
same,relative viability,NCI-H1915; first compound 0.02 µM,0.244
same,relative viability,NCI-H1915; first compound 0.06325 µM,0.254
same,relative viability,NCI-H1915; first compound 0.2 µM,0.161
same,relative viability,PC-14; first compound 0.002 µM,0.738
same,relative viability,PC-14; first compound 0.006325 µM,0.652
same,relative viability,PC-14; first compound 0.02 µM,0.243
same,relative viability,PC-14; first compound 0.06325 µM,0.0663
same,relative viability,PC-14; first compound 0.2 µM,0.0601
same,relative viability,HCC-15; first compound 0.002 µM,0.394
same,relative viability,HCC-15; first compound 0.006325 µM,0.364
same,relative viability,HCC-15; first compound 0.02 µM,0.391
same,relative viability,HCC-15; first compound 0.06325 µM,0.258
same,relative viability,HCC-15; first compound 0.2 µM,0.13
same,relative viability,NCI-H1793; first compound 0.002 µM,0.428
same,relative viability,NCI-H1793; first compound 0.006325 µM,0.333
same,relative viability,NCI-H1793; first compound 0.02 µM,0.357
same,relative viability,NCI-H1793; first compound 0.06325 µM,0.187
same,relative viability,NCI-H1793; first compound 0.2 µM,0.186
same,relative viability,201T; first compound 0.002 µM,0.667
same,relative viability,201T; first compound 0.006325 µM,0.706
same,relative viability,201T; first compound 0.02 µM,0.675
same,relative viability,201T; first compound 0.06325 µM,0.67
same,relative viability,201T; first compound 0.2 µM,0.674

# — the supplement of paper PMC10307832
